Laboratory results from PMC8415315, “Maternal Serotonin Reuptake Inhibitor Antidepressants Have Acute Effects on Fetal Heart Rate Variability in Late Gestation” (Frontiers in Psychiatry, 2021).
Like-named read-outs stand apart in the source and are kept apart here.

What was measured:
[1] = Maternal plasma drug concentrations by HPLC tandem mass spectrometry at 36-weeks' gestation; conditions: for Δ T3-T0, change in dose-adjusted plasma concentration: mean ± SE, from baseline (T0) to post-dose 3 (T3); for Pharmacokinetic phase at the post-dose fetal assessment: reached Cmax
Source text: To investigate chronic and acute SRI effects on the fetus, SRI-treated women were asked to withhold their typical morning oral dose until ~10h00, resulting in the AM/baseline and PM fetal assessments corresponding to pre-dose and post-dose periods, respectively. To characterize concurrent SRI pharmacokinetics across the study protocol, plasma drug concentrations were quantified at baseline (pre-dose) and four time-points post-dose; details on the drug level assay and pharmacologic variables are described below. Timing for each component of this study considered the need for a sufficient antidepressant baseline (pharmacologic trough), half-life, and time-to-peak plasma levels, weighted against length of study in effort to minimize maternal discomfort/inconvenience and potential effects of diurnal variations in the fetal variables obtained.
Changes in maternal plasma drug concentration between fetal assessments were determined by analyzing blood samples from SRI-treated mothers pre-dose (T0, baseline levels; ~08h00) and at four time-points post-dose: T1 (~10h30), T2 (~12h30), T3 (~13h30), and T4 (~14h30). Serum was separated by centrifugation at 3,000 × g for 10 min, transferred to polypropylene tubes and stored at −70°C until analysis. High performance liquid chromatography tandem mass spectrometry, performed offsite (CANTEST Ltd.; Burnaby, Canada), was used to determine levels of fluoxetine, norfluoxetine, paroxetine, sertraline, citalopram, escitalopram and venlafaxine.
Plasma drug concentrations were adjusted for maternal oral dose (ng/ml·mg). To quantify the relative change in maternal SRI level between the pre- and post-dose fetal assessments, the difference in dose-adjusted plasma drug concentration between T0 and T3 was determined. Plasma concentrations for metabolites were not reported as they reflect parent drugs.

[2] = Non-compartmental pharmacokinetic analysis of maternal SRI plasma levels; type: in vivo, human; conditions: for AUC(0-t) / Cmax: female, human, 36-weeks' gestation, daily oral dose; for AUC(0-t) / Cmax / Tpeak: mean ± SE; for AUC(0-t): area under the curve from T0 (baseline) to last measured plasma concentration (T4), SRI-treated women; for Cmax: maximum (peak) maternal plasma drug concentration; for Tpeak: time from baseline (T0) to reach Cmax, oral dose about 1.8 h after T0
Description: Maternal SRI plasma levels were further characterized by performing a non-compartmental pharmacokinetic analysis, yielding estimates of maximum plasma drug concentration (Cmax), time-to-peak (Tpeak) and area under the curve (AUClast). Pharmacokinetic variables were calculated using the PKNCA R package ([73]).

fetal HR = conditions: acute exposure; ref [49]; cited from earlier work
[3] = known value the observation is said to be consistent with; no reference given; cited from earlier work
[4] = design: method as in PMID 26765210; conditions: rodents; 2-h after maternal drug administration; ref [83]; cited from earlier work

Δ T3-T0, change in dose-adjusted plasma concentration [1] | AUC(0-t) [2] | Cmax [2] | Tpeak [2] | Pharmacokinetic phase by the last blood collection (T4) ([1]; listed as fluoxetine) | AUClast, total observed maternal drug exposure during study protocol (rank among antidepressants) [2] | Pharmacokinetic phase at the post-dose fetal assessment [1] | Structure (SMILES) | Pharmacokinetic phase by the last blood collection (T4) [1] | Effect on fetal HR variability (fetal HR) | Tpeak [3] | Fetal citalopram exposure relative to the mother [4]
– | – | – | – | – | – | – | CN1CCC[C@H]1c1cccnc1 [nicotine] | – | decreased | – | –
4.3 ± 2.5 ng/ml·mg | 3220 ± 1920 ng·h/mL | 613 ± 342 ng/mL | 5.8 ± 1.0 h | still in the absorption phase | highest | – | CNCCC(Oc1ccc(C(F)(F)F)cc1)c1ccccc1 (stereo not shown) [Fluoxetine] | absorption phase | – | 6 to 8 h | –
0.71 ± 0.53 ng/ml·mg | 728 ± 256 ng·h/mL | 197 ± 105 ng/mL | 5.3 ± 0.18 h | – | – | early elimination phase | CN[C@H]1CC[C@@H](c2ccc(Cl)c(Cl)c2)c2ccccc21 [Sertraline] | – | – | – | –
0.13 ± 0.21 ng/ml·mg | 125 ± 66 ng·h/mL | 24 ± 5.2 ng/mL | 4.6 ± 0.04 h | – | lowest | early elimination phase | Fc1ccc([C@@H]2CCNC[C@H]2COc2ccc3c(c2)OCO3)cc1 [Paroxetine] | – | – | – | –
3.2 ± 1.0 ng/ml·mg | 906 ± 271 ng·h/mL | 274 ± 92 ng/mL | 4.9 ± 0.14 h | – | – | early elimination phase | CN(C)CCCC1(c2ccc(F)cc2)OCc2cc(C#N)ccc21 (stereo not shown) [Citalopram] | – | – | – | exceed that of the mother

Structure (SMILES) | Δ T3-T0, change in dose-adjusted plasma concentration [1] | AUC(0-t) [2] | Cmax [2] | Tpeak [2] | Pharmacokinetic phase by the last blood collection (T4) ([1]; listed as fluoxetine) | AUClast, total observed maternal drug exposure during study protocol (rank among antidepressants) [2] | Pharmacokinetic phase at the post-dose fetal assessment [1] | Pharmacokinetic phase by the last blood collection (T4) [1] | Effect on fetal HR variability (fetal HR) | Tpeak [3] | Fetal citalopram exposure relative to the mother [4]
COc1ccc(C(CN(C)C)C2(O)CCCCC2)cc1 (stereo not shown) [Venlafaxine] | 0.43 ± 0.13 ng/ml·mg | 621 ± 314 ng·h/mL | 163 ± 74 ng/mL | 5.7 ± 0.30 h | – | – | – | still in the absorption phase | – | – | –
